Results taken from BindingDB's records for patent US20260055102 (Redx Pharma, 2026).

Columns and labels:
[1] = biological target: T1, Discoidin domain-containing receptor 2 (Homo sapiens, UniProt Q16832); test: DDR1 and DDR2 Biochemical Assay
T1 sequence (Q16832 whole entry): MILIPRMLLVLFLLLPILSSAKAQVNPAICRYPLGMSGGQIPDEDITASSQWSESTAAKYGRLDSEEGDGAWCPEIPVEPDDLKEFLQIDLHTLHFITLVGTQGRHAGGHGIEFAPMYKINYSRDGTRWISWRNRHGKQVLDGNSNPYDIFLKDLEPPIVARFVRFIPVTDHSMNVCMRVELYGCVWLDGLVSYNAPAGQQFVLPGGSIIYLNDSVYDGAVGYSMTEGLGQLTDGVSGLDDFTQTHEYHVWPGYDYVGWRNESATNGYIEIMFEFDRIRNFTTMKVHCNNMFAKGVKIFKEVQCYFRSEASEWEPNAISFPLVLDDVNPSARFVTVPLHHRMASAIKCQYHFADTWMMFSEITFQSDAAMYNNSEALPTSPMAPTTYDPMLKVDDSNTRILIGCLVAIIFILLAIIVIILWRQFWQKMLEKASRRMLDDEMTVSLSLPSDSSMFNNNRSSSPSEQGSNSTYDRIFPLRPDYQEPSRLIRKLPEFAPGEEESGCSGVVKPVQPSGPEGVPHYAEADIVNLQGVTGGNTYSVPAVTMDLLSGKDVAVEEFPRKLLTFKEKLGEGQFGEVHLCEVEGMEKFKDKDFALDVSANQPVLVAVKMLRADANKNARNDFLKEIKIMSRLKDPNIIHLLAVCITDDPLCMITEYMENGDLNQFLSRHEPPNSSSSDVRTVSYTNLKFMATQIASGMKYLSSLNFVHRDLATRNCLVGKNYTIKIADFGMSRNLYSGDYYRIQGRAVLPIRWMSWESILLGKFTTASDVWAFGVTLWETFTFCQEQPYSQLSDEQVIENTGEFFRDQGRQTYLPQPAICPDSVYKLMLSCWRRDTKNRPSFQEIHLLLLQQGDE
Experimental: (§1) The capacity of compounds to bind to DDR1 and DDR2 was quantified using a LanthaScreen Eu Kinase Binding Assay. Recombinant human DDR1 (2.5 nM; aa440-876 containing a GST tag) and DDR2 (1.75 nM; aa427-855 containing a GST tag) were diluted in assay buffer (50 mM HEPES pH7.3, 10 mM MgCl2, 1 mM EGTA and 0.01% Tween) with various concentrations of compound in a 384-well plate and a volume of 5 uL. After a 30-minute incubation at room temperature, 2.5 uL of Eu-anti GST antibody (diluted to 1 nM in assay buffer) plus Kinase Tracer 178 (diluted in assay buffer to 5 nM for DDR1 and 10 nM for DDR2) were added to the plate. Following 60-minute incubation at room temperature, time-resolved fluorescence was measured on a BMG Labtech PHERAstar plate reader. DMSO (1%) and reference compound (1 μM) were used to generate the Max and Min assay signals, respectively. Data was analysed using a four-parameter logistic model to calculate IC50 values, with at least two independent replicates were performed for each compound.

[2] = biological target: Epithelial discoidin domain-containing receptor 1 (Homo sapiens, UniProt Q08345); test: DDR1 and DDR2 Biochemical Assay
Experimental: as §1

Epithelial discoidin domain-containing receptor 1, sequence (Q08345 whole entry, the tested form may be a part): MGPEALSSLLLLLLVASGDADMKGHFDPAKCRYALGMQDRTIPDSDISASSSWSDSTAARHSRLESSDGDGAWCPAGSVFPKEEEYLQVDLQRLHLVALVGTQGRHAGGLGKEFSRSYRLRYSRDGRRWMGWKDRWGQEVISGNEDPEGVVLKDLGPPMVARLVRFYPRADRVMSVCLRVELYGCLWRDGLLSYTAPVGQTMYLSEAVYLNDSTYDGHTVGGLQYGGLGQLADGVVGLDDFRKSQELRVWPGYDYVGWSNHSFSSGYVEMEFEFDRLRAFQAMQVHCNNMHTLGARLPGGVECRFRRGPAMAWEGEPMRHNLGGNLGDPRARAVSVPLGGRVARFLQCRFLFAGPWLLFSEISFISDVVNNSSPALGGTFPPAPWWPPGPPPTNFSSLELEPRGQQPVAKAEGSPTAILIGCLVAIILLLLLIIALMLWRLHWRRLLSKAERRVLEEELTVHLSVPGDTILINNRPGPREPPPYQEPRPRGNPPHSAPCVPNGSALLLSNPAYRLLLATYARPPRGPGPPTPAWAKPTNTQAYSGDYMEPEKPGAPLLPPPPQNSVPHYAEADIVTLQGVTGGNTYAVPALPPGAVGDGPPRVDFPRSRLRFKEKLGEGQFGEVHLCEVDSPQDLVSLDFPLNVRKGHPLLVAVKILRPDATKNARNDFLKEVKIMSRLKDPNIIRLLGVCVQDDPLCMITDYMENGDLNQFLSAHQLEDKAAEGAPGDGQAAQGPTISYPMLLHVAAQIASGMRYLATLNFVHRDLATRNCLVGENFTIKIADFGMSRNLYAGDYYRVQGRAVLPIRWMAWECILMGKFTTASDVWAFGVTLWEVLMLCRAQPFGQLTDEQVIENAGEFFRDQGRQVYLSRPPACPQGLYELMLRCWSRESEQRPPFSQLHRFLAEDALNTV

SMILES | IC50 [1] [nM] | IC50 [2] [nM]
Cc1cccc2c1n(-c1ccc(-c3cncc4c3cnn4C)cc1)c(=O)n2CC(=O)N1CCC[C@H]1CF [US20260055102, Example 26] | > 1000 | 
Cc1cccc2c1n(-c1ccc(-c3cncc4c3cnn4C)cn1)c(=O)n2CC(=O)N1CCO[C@H](C(F)(F)F)C1 [US20260055102, Example 61] |  | < 10
CN(C)c1cccc2c1n(-c1ccc(-c3cncc4c3cnn4C)cc1)c(=O)n2CC(=O)NCC(F)(F)F [US20260055102, Example 80] | > 1000 | 
Cc1nc(-n2c(=O)n(CC(=O)NCC(F)(F)F)c3cccc(C)c32)cnc1-c1cncc2c1cnn2C [US20260055102, Example 100] | > 1000 | > 1000
